Laboratory results as given in US20260265176A1, “SUBSTITUTED CYCLOHEXENE AND CYCLOHEXANE INHIBITORS OF ORNITHINE AMINOTRANSFERASE” (Northwestern University, priority 2023, published 2026).

How the values were obtained:
Format in all cases: biochemical
hOAT [1] = target: T1, hOAT (Homo sapiens, UniProt P04181); assay: Time-dependent reactivation experiment (dialysis) of hOAT inactivated by 17
T1 construct: made in house; host or cells: Escherichia coli BL21 (DE3)
T1 sequence (P04181 26-439): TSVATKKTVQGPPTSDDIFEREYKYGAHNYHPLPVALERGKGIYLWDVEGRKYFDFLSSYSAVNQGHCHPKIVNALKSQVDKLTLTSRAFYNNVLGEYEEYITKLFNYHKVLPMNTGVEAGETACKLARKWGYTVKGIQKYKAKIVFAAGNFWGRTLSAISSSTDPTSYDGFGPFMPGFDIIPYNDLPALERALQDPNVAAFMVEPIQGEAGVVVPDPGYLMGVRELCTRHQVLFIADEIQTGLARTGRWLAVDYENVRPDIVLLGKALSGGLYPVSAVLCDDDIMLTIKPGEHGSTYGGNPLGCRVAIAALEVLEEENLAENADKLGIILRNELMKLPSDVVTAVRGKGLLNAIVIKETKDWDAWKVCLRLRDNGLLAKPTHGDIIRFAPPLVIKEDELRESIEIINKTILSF
Procedure: Mass spectrometry, however, might differentiate those possibilities. To confirm irreversible inactivation of hOAT by 17, a time-dependent reactivation experiment (dialysis) was performed. […] Aliquots at different time intervals were collected and assayed to detect restored enzyme activity. […] It takes approximately 10 equiv of 17, however, to produce complete enzyme inactivation.
The dialysis experiment was conducted using previous protocols.^26,38

hOAT [2] = target: T1, hOAT; assay: Transient-state stopped-flow spectrophotometry of hOAT reacting with inactivator; details: hyperbolic fit of kobs vs inactivator concentration, hOAT 17 μM, 20° C.
Procedure: Vertical arrows indicate the sequence of the observed spectra after initiating the experiment. […] A sample of hOAT (17 μM) was mixed with 17 (0-11 mM) using a stopped-flow spectrophotometer, and the reaction was observed between 300 and 800 nm for 150 sec using CCD detection. Several representative spectra from the data set are shown here.
FIG. 16C depicts the dependence of observed rate constants on the concentration of [5]. Fitting to a rectangular hyperbolic function (kobs=klimit[5]/K[5]+[5] returned an observed limiting rate constant of 0.20±0.01 s^−1 and a dissociation constant for reversible formation of the external aldimine of 2.9±0.4 mM.
The data collected using stopped-flow spectrophotometry serves as additional evidence for the proposed mechanism. […]
The subsequent increase in absorbance at 325 nm would thus report the accumulation of both the turnover and inhibition products, with no difference in rates.
Transient-State Kinetic Characterization of hOAT with […]: A sample of hOAT (17 μM) was mixed with 17 (0-11 mM) at 20° C. using a rapid mixing stopped-flow spectrophotometer (TgK Scientific) equipped with charge-coupled device (CCD) detection, allowing for the collection time-resolved spectra. […] A reconstructed time zero point was included in the data and was obtained by adding the spectrum of the enzyme and the spectrum of the inhibitor when measured separately. […]

hGABA-AT = target: T2, hGABA-AT (Homo sapiens, UniProt P80404); assay: Inactivation of hGABA-AT, coupled enzyme assay (kinetic constants); details: for kinact/K1, hGABA-AT: inactivation of hGABA-AT, K1 and kinact not determinable
T2 construct: made in house; host or cells: Expi293 cells
T2 sequence (P80404 29-500): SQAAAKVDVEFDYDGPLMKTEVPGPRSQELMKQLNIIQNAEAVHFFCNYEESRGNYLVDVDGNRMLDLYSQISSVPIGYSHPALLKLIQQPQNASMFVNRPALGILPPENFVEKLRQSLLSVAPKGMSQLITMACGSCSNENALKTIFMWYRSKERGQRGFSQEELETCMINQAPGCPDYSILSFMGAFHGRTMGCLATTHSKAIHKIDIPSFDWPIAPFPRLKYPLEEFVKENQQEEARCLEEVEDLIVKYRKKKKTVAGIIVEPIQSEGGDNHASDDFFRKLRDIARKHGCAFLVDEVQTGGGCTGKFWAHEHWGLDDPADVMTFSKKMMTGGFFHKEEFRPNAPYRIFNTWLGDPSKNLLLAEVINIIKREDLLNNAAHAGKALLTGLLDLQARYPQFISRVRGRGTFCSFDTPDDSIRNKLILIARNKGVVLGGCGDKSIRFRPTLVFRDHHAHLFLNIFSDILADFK
Procedure: (§1) Recombinant human brain γ-aminobutyric acid aminotransferase (hGABA-AT) was expressed and purified according to literature procedures with slight modifications.^26 Briefly, pelleted Expi293 cells were resuspended into buffer A containing 50 mM K4O7P2 pH 8.6, 300 mM NaCl, and 100 μM PLP. The suspension was lysed using four repeat cycles of sonication (10 s on, 10 s off, 20% amplitude) on ice followed by the addition of 12.5 mM MgCl, 125 μM CaCl, and 5 mg of lyophilized DNase I. The lysate incubated on ice for 60 minutes with periodic inversions followed by a two step centrifugation procedure to pellet cell debris. Step one included centrifugation at 18000 rpm for 60 minutes at 4° C. followed by the collection of supernatant and a secondary step at 20000 rpm for 45 minutes. The supernatant was collected, and the sample was loaded into a disposable 0.45 μm bottle-top vacuum filter system to remove remaining cell debris. The resulting sample was then loaded onto a Co^2+ immobilized metal affinity chromatography column pre-equilibrated with buffer A. The column was washed with 40 mL of buffer A before hGABA-AT was eluted using a step-wise elution gradient of buffer A supplemented with 200 mM imidazole. The step-wise gradient totaled 5 steps of increasing imidazole concentration (1 mM, 2 mM, 5 mM, 100 mM, 200 mM). Individual 4 mL fractions containing hGABA-AT were combined and concentrated to a volume of 3 mL using a 30000 Da molecular weight cutoff (MWCO) Amicon Ultra centrifugal filter device. For further purification, the sample was loaded onto a HiLoad Superdex-200PG column (16 mm×600 mm) pre-equilibrated with buffer A and subjected to size exclusion chromatography at a flow rate of 0.25 mL/min. PYCR1 was purified according to previously published protocols.^38 Coupled enzyme assays for hGABA-AT, hOAT, Ala-AT, and Asp-AT were carried out according to previous procedures.^26

hOAT [3] = target: T1, hOAT; assay: Partition ratio / turnover number by titration of hOAT with inactivator; details: for partition ratio: turnover number minus one
Source text: Determination of the Turnover Mechanism to Metabolites The partition ratio of an MBI is the ratio of compound that acts as a substrate relative to the compound that inactivates the enzyme. Ideally, plotting the enzyme activity remaining after inactivation versus equivalents of compound added will provide a straight line from 100 to 0% enzyme activity remaining. The x-intercept of this line would give the number of inactivator molecules required to inactivate a single enzyme active site (the turnover number). This number represents the total number of compound molecules that were engaged by the active site until the enzyme was inactivated. Of these compounds, only the final one will inactivate the enzyme, and the others will have been consumed as substrates. As a result, the partition ratio is the turnover number minus one (assuming a 1:1 stoichiometry of inactivator to enzyme in the inactivated complex).
The partition ratio of 17 was determined by titrating a known amount of hOAT with varying equivalents of inactivator (FIG. 7). The linear relationship of the remaining enzymatic activity was extrapolated to yield the exact number of equivalents of 17 to inactivate the enzyme completely. From this we determined the turnover number to be 4.27 and thus the partition ratio of 17 to be 3.27.
The turnover number for 17 was determined to be 2.2 by titrating a fixed amount of hOAT with varying equivalents of 17, measuring the remaining enzyme activities for the different equivalents of inhibitor, and employing the method of Pham et al.^32 (FIG. 24). The partition ratio, therefore, is 1.2.
The partition ratio was calculated using previous protocols.^26,28

hOAT [4] = target: T1, hOAT; assay: Inactivation of hOAT, coupled enzyme assay (kinetic constants); details: for kinact / kinact/K1, hOAT / Ki: inactivation of hOAT; for Ki: read-out: K1, hOAT
Procedure: as §1

[5] = from turnover number/partition ratio study, FIG. 24
[6] = listed as (±) 22, hydrochloride

| SMILES | enzymatic activity recovered after dialysis (hOAT [1]; 72 hours of dialysis, hOAT treated with 0.6-10 equivalents of 17) | equivalents needed to produce complete enzyme inactivation (hOAT [1]; hOAT) | observed limiting rate constant (hOAT [2]) [s⁻¹] | Kd (hOAT [2]; read-out: dissociation constant for reversible formation of the external aldimine) [µM] | kinact/K1, hGABA-AT (hGABA-AT) [M⁻¹ s⁻¹] | share of compound undergoing turnover to a product and PMP (hOAT [3]; [5]) [%] | share of turnover resulting in inactivation (hOAT [3]; [5]) [%] | turnover number (hOAT [3]; linear extrapolation of remaining activity, FIG. 7) | turnover number (hOAT [3]; method of Pham et al., FIG. 24) | partition ratio (hOAT [3]; FIG. 7) | partition ratio (hOAT [3]; FIG. 24) | kinact (hOAT [4]) [s⁻¹] | kinact/K1, hOAT (hOAT [4]) [M⁻¹ s⁻¹] | Ki (hOAT [4]) [µM] | kinact/KI (hOAT [4]; read-out: overall efficiency (kinact/KI) against hOAT (converted)) [M⁻¹ s⁻¹] | kinact/KI, fold less effective than that of 17 for hOAT (hOAT [4]; relative to 17) [fold] | inhibition of hGABA-AT (in words) (hGABA-AT; hydrochloride) | inhibition of hGABA-AT (in words) (hGABA-AT; [6]) | inhibition of hOAT (in words) (hOAT [4]; hydrochloride) | inhibition of hOAT (in words) (hOAT [4]; [6]) |
| --- | --- | --- | --- | --- | --- | --- | --- | --- | --- | --- | --- | --- | --- | --- | --- | --- | --- | --- | --- | --- |
| Cl.N[C@H]1C=C(C(=O)O)CC(F)(F)C1 [Compound 17, (R)-3-amino-5,5-difluorocyclohex-1-ene-1-carboxylic acid hydrochloride] | No enzymatic activity was recovered | approximately 10 equiv | 0.20 ± 0.01 | 2900 ± 400 | 2.83 | 55 | 45 | 4.27 | 2.2 | 3.27 | 1.2 | 0.00467 | 17.3 | 270 ± 70 | 17.3 |  |  |  |  |  |
| Cl.N[C@H]1CC(C(=O)O)=CC(F)(F)C1 [Compound 17a, (S)-5-amino-3,3-difluorocyclohex-1-ene-1-carboxylic acid hydrochloride] |  |  |  |  | 2 |  |  |  |  |  |  | 0.0025 | 1.83 | 1200 ± 400 |  | 10 |  |  |  |  |
| Cl.N[C@@H]1C[C@H](C(=O)O)CC(F)(F)C1 (racemic) [(±)22, cis-5-Amino-3,3-difluorocyclohexane-1-carboxylic acid hydrochloride] |  |  |  |  |  |  |  |  |  |  |  |  |  |  |  |  | Weak reversible inhibition at 10 mM | little or no inhibitory effect | No inhibition up to 10 mM | little or no inhibitory effect |
